Biological target: T1, recombinant human GR (Homo sapiens, UniProt P04150)
T1 construct: purchased Panvera/Invitrogen P2812 (kit P2893)
T1 sequence (P04150 1-777): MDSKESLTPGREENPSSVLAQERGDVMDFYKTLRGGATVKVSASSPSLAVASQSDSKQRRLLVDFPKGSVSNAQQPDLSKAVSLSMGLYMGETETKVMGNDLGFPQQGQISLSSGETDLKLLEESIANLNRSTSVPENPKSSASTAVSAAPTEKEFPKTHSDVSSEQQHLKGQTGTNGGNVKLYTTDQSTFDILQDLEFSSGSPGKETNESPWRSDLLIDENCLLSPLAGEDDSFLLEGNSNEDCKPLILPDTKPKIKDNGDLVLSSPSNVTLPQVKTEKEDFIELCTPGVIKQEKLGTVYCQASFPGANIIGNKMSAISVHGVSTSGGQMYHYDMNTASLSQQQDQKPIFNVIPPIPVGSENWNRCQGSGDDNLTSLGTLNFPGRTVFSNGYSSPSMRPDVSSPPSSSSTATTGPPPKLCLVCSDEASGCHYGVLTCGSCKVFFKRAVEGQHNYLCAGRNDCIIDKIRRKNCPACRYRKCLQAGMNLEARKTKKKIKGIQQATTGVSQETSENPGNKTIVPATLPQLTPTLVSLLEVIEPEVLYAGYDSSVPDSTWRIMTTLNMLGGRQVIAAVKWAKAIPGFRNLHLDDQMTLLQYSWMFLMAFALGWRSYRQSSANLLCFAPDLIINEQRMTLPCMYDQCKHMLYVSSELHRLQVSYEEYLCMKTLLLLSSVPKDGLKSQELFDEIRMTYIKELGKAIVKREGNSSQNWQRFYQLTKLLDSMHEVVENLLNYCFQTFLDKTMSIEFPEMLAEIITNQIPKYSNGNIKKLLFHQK
Assay: Human Glucocorticoid Receptor (GR) Assay (fluorescence polarization competition, Panvera/Invitrogen kit)
Conditions: GS Red Fluoromone tracer, 2 hours at room temperature, 100% control 10 μM Dexamethasone, read-out: Inhibition of GR binding, IC50
Description: Human Glucocorticoid Receptor (GR) Assay The assay is based on a commercial kit from Panvera/Invitrogen (Part number P2893). The assay technology is fluorescence polarization. The kit utilises recombinant human GR (Panvera, Part number P2812), a Fluoromone™ labelled tracer (GS Red, Panvera, Part number P2894) and a Stabilizing Peptide 10× (Panvera, Part number P2815). The GR and Stabilizing Peptide reagents are stored at −70° C. while the GS Red is stored at −20° C. Also included in the kit are 1M DTT (Panvera, Part number P2325, stored at −20° C.) and GR Screening buffer 10× (Panvera, Part number P2814, stored at −70° C. initially but once thawed stored at room temperature). Avoid repeated freeze/thaws for all reagents. The GR Screening buffer 10× comprises 100 mM potassium phosphate, 200 mM sodium molybdate, 1 mM EDTA and 20% DMSO. Test compounds (1 μL) and controls (1 μL) in 100% DMSO were added to black is polystyrene 384-well plates (Greiner low volume black flat-bottom, part number 784076). 0% control was 100% DMSO and 100% control was 10 μM Dexamethasone. Background solution (8 μL; assay buffer 10×, Stabilizing Peptide, DTT and ice cold MQ water) was added to the background wells. GS Red solution (7 μL; assay buffer 10×, Stabilizing Peptide, DTT, GS Red and ice cold water) was added to all wells except background wells. GR solution (7 μL; assay buffer 10×, Stabilizing Peptide, DTT, GR and ice cold water) was added to all wells. The plate was sealed and incubated in a dark at room temperature for 2 hours. The plate was read in an Analyst plate reader (LJL Biosystems/Molecular Devices Corporation) or other similar plate reader capable of recording fluorescence polarization (excitation wavelength 530 nm, emission wavelength 590 nm and a dichroic mirror at 561 nm).

| Structure (SMILES) | IC50 |
| --- | --- |
| C[C@]12Cc3cnn(-c4ccc(F)nc4)c3C=C1CC[C@H]1[C@@H]3CC[C@](OC(=O)C4CCOC4)(C(=O)SCF)[C@@]3(C)C[C@H](O)[C@@]12F (mixture of isomers) [Example 16 (racemate), (1R,3aS,3bS,10aS,10bR,11S,12aS)-10b-Fluoro-1-{[(fluoromethyl)sulfanyl]carbonyl}-7-(6-fluoropyridin-3-yl)-11-hydroxy-10a,12a-dimethyl-1,2,3,3a,3b, 4,5,7,10,10a,10b,11,12,12a-tetradecahydrocyclopenta[5,6]naphtho[1,2-f]indazol-1-yl tetrahydrofuran-3-carboxylate] | 0.53 nM |
| C[C@]12Cc3cnn(-c4ccc(F)nc4)c3C=C1CC[C@H]1[C@@H]3CC[C@](OC(=O)[C@H]4CCCO4)(C(=O)SCF)[C@@]3(C)C[C@H](O)[C@@]12F [Example 13, (1R,3aS,3bS,10aS,10bR,11S,12aS)-10b-Fluoro-1-{[(fluoromethyl)sulfanyl]carbonyl}-7-(6-fluoropyridin-3-yl)-11-hydroxy-10a,12a-dimethyl-1,2,3,3a,3b,4,5,7,10,10a,10b,11,12,12a-tetradecahydrocyclopenta[5,6]naphtho[1,2-f]indazol-1-yl (2R)-tetrahydrofuran-2-carboxylate] | 0.98 nM |
| COCC(=O)O[C@]1(C(=O)SCC#N)CC[C@H]2[C@@H]3C[C@H](C)C4=Cc5c(cnn5-c5ccc(F)nc5)C[C@]4(C)[C@H]3[C@@H](O)C[C@@]21C [Example 24, (1R,3aS,3bS,5S,10aR,10bS,11S,12aS)-1-{[(Cyanomethyl)sulfanyl]carbonyl}-7-(6-fluoropyridin-3-yl)-11-hydroxy-5,10a,12a-trimethyl-1,2,3,3a,3b,4,5,7,10,10a,10b,11,12,12a-tetradecahydrocyclopenta[5,6]naphtho[1,2-f]indazol-1-yl methoxyacetate] | 1.1 nM |
| C[C@]12Cc3cnn(-c4ccc(F)cc4)c3C=C1CC[C@@H]1[C@@H]2[C@@H](O)C[C@@]2(C)[C@H]1CC[C@]2(OC(=O)C1CCCO1)C(=O)SCCO (single isomer, unassigned) [Example 18] | 3.1 nM |
| COCC(=O)O[C@]1(C(=O)SCF)CC[C@H]2[C@@H]3C[C@H](C)C4=Cc5c(cnn5-c5ccc(F)nc5)C[C@]4(C)[C@H]3[C@@H](O)C[C@@]21C [Example 8, (1R,3aS,3bS,5S,10aR,10bS,11S,12aS)-1-{[(Fluoromethyl)sulfanyl]carbonyl}-7-(6-fluoropyridin-3-yl)-11-hydroxy-5,10a,12a-trimethyl-1,2,3,3a,3b,4,5,7,10,10a,10b,11,12,12a-tetradecahydrocyclopenta[5,6]naphtho[1,2-f]indazol-1-yl methoxyacetate] | 0.93 nM |
| C[C@H]1C[C@@H]2[C@H]([C@@H](O)C[C@@]3(C)[C@H]2CC[C@]3(OC(=O)C2CC2)C(=O)SCF)[C@@]2(C)Cc3cnn(-c4ccc(F)nc4)c3C=C12 [Example 25, (1R,3aS,3bS,5S,10aR,10bS,11S,12aS)-1-{[(Fluoromethyl)sulfanyl]carbonyl}-7-(6-fluoropyridin-3-yl)-11-hydroxy-5,10a,12a-trimethyl-1,2,3,3a,3b,4,5,7,10,10a,10b,11,12,12a-tetradecahydrocyclopenta[5,6]naphtho[1,2-f]indazol-1-yl cyclopropanecarboxylate] | 1.2 nM |
| C[C@]12Cc3cnn(-c4ccc(F)nc4)c3C=C1CC[C@H]1[C@@H]3CC[C@](OC(=O)C4CC4)(C(=O)OCC#N)[C@@]3(C)C[C@H](O)[C@@]12F [Example 19, (1R,3aS,3bS,10aS,10bR,11S,12aS)-1-{[Cyanomethyloxy]carbonyl}-10b-fluoro-7-(6-fluoropyridin-3-yl)-11-hydroxy-10a,12a-dimethyl-1,2,3,3a,3b,4,5,7,10,10a,10b,11,12,12a-tetradecahydrocyclopenta[5,6]naphtho[1,2-f]indazol-1-yl cyclopropanecarboxylate] | 1.4 nM |
| C[C@H]1C[C@@H]2[C@H]([C@@H](O)C[C@@]3(C)[C@H]2CC[C@]3(OC(=O)c2cocn2)C(=O)SCF)[C@@]2(C)Cc3cnn(-c4ccc(F)nc4)c3C=C12 [Example 9, (1R,3aS,3bS,5S,10aR,10bS,11S,12aS)-1-{[(Fluoromethyl)sulfanyl]carbonyl}-7-(6-fluoropyridin-3-yl)-11-hydroxy-5,10a,12a-trimethyl-1,2,3,3a,3b,4,5,7,10,10a,10b,11,12,12a-tetradecahydrocyclopenta[5,6]naphtho[1,2-f]indazol-1-yl 1,3-oxazole-4-carboxylate] | 1.5 nM |

Reference: patent publication US8338587B2, “Compounds” (AstraZeneca AB, priority 2009, dated 2012)
